Laboratory results taken from ChEMBL document CHEMBL1201862, “PubChem BioAssay data set” (2004).
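Dose response: 5 concentrations. Exposure: 48 h. Format: 96-well plates. Endpoint: linear interpolation; highest concentration if not reached. At the GI50, growth is halved.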 Active and inactive are the calls of the source. No stated cut-off is given here; in the data, active = GI50 up to about 1.1 µM and inactive = higher.

Assays:
Experiment in all cases: NCI anticancer screen, dose series, 48 h
786-0 = tested on: 786-0
IGROV-1 = tested on: IGROV-1
M14 = tested on: M14
A549 = tested on: A549
EKVX = tested on: EKVX
TK-10 = tested on: TK-10
UACC-257 = tested on: UACC-257
CCRF-CEM = tested on: CCRF-CEM
T47D = tested on: T47D
HCT-116 = tested on: HCT-116
CAKI-1 = tested on: CAKI-1
MOLT-4 = tested on: MOLT-4
K562 = tested on: K562
HCT-15 = tested on: HCT-15
SF-268 = tested on: SF-268
MDA-MB-231 = tested on: MDA-MB-231
NCI-H460 = tested on: NCI-H460
U-251 = tested on: U-251
RXF 393 = tested on: RXF 393
PC-3 = tested on: PC-3
SF-539 = tested on: SF-539
NCI-H226 = tested on: NCI-H226
SK-MEL-28 = tested on: SK-MEL-28
BT-549 = tested on: BT-549
HOP-62 = tested on: HOP-62
SF-295 = tested on: SF-295
SW-620 = tested on: SW-620
NCI-H522 = tested on: NCI-H522
MCF7 = tested on: MCF7
UACC-62 = tested on: UACC-62
KM12 = tested on: KM12
NCI/ADR-RES = tested on: NCI/ADR-RES
NCI-H23 = tested on: NCI-H23
SK-OV-3 = tested on: SK-OV-3
MDA-N = tested on: MDA-N
HL-60 = tested on: HL-60
SR = tested on: SR
OVCAR-8 = tested on: OVCAR-8
SNB-75 = tested on: SNB-75
COLO 205 = tested on: COLO 205
SNB-19 = tested on: SNB-19
SK-MEL-5 = tested on: SK-MEL-5
Hs-578T = tested on: Hs-578T
DU-145 = tested on: DU-145
UO-31 = tested on: UO-31
SN12C = tested on: SN12C
HT-29 = tested on: HT-29
ACHN = tested on: ACHN
RPMI-8226 = tested on: RPMI-8226
OVCAR-4 = tested on: OVCAR-4
OVCAR-3 = tested on: OVCAR-3
HCC 2998 = tested on: HCC 2998
MDA-MB-435 = tested on: MDA-MB-435
OVCAR-5 = tested on: OVCAR-5
SK-MEL-2 = tested on: SK-MEL-2
LOX IMVI = tested on: LOX IMVI
HOP-92 = tested on: HOP-92
Malme-3M = tested on: Malme-3M

## O=[N+]([O-])c1ccc(Cl)cc1N/N=C/c1ccnc2ccccc12
786-0
  GI50: > 100 µM (inactive)
IGROV-1
  GI50: > 100 µM (inactive)
M14
  GI50: > 100 µM (inactive)
A549
  GI50: > 100 µM (inactive)
EKVX
  GI50: 22.8 µM (inactive)
TK-10
  GI50: > 100 µM (inactive)
UACC-257
  GI50: > 100 µM (inactive)
CCRF-CEM
  GI50: > 100 µM (inactive)
T47D
  GI50: > 100 µM (inactive)
HCT-116
  GI50: 42.9 µM (inactive)
CAKI-1
  GI50: > 100 µM (inactive)
MOLT-4
  GI50: > 100 µM (inactive)
K562
  GI50: > 100 µM (inactive)
HCT-15
  GI50: > 100 µM
SF-268
  GI50: > 100 µM (inactive)
MDA-MB-231
  GI50: > 100 µM (inactive)
NCI-H460
  GI50: > 100 µM (inactive)
U-251
  GI50: 17.5 µM (inactive)
RXF 393
  GI50: 36.9 µM (inactive)
PC-3
  GI50: > 100 µM (inactive)
SF-539
  GI50: 21.9 µM (inactive)
NCI-H226
  GI50: > 100 µM (inactive)
SK-MEL-28
  GI50: > 100 µM (inactive)
BT-549
  GI50: > 100 µM (inactive)
HOP-62
  GI50: > 100 µM (inactive)
SF-295
  GI50: > 100 µM (inactive)
SW-620
  GI50: > 100 µM (inactive)
NCI-H522
  GI50: > 100 µM (inactive)
MCF7
  GI50: > 100 µM (inactive)
UACC-62
  GI50: > 100 µM (inactive)
KM12
  GI50: > 100 µM (inactive)
NCI/ADR-RES
  GI50: 53.3 µM (inactive)
NCI-H23
  GI50: > 100 µM (inactive)
SK-OV-3
  GI50: > 100 µM (inactive)
MDA-N
  GI50: > 100 µM (inactive)
HL-60
  GI50: > 100 µM (inactive)
SR
  GI50: > 100 µM (inactive)
OVCAR-8
  GI50: 46.5 µM (inactive)
SNB-75
  GI50: 31.1 µM (inactive)
COLO 205
  GI50: > 100 µM (inactive)
SNB-19
  GI50: > 100 µM (inactive)
SK-MEL-5
  GI50: > 100 µM (inactive)
Hs-578T
  GI50: 52.4 µM (inactive)
DU-145
  GI50: > 100 µM (inactive)
UO-31
  GI50: > 100 µM (inactive)
SN12C
  GI50: > 100 µM (inactive)
HT-29
  GI50: > 100 µM (inactive)
ACHN
  GI50: > 100 µM (inactive)
RPMI-8226
  GI50: > 100 µM (inactive)
OVCAR-4
  GI50: > 100 µM (inactive)
OVCAR-3
  GI50: > 100 µM (inactive)
HCC 2998
  GI50: > 100 µM (inactive)
MDA-MB-435
  GI50: 97.3 µM (inactive)

## Oc1ccc[nH]c1=[Se]
786-0
  GI50: 16 µM (inactive)
IGROV-1
  GI50: 66.7 µM (inactive)
M14
  GI50: 47.6 µM (inactive)
A549
  GI50: 32.9 µM (inactive)
EKVX
  GI50: 25.8 µM (inactive)
TK-10
  GI50: 55.3 µM (inactive)
UACC-257
  GI50: > 100 µM (inactive)
CCRF-CEM
  GI50: 35.3 µM (inactive)
T47D
  GI50: 22.4 µM (inactive)
HCT-116
  GI50: 33.9 µM (inactive)
CAKI-1
  GI50: 69.7 µM (inactive)
MOLT-4
  GI50: > 100 µM (inactive)
K562
  GI50: 36.2 µM (inactive)
HCT-15
  GI50: 44.4 µM
SF-268
  GI50: 76.2 µM (inactive)
OVCAR-5
  GI50: 57.1 µM (inactive)
MDA-MB-231
  GI50: > 100 µM (inactive)
NCI-H460
  GI50: 41.8 µM (inactive)
U-251
  GI50: 32.7 µM (inactive)
RXF 393
  GI50: > 100 µM (inactive)
PC-3
  GI50: > 100 µM (inactive)
SF-539
  GI50: 54.6 µM (inactive)
NCI-H226
  GI50: > 100 µM (inactive)
SK-MEL-28
  GI50: 71.1 µM (inactive)
BT-549
  GI50: 55.1 µM (inactive)
HOP-62
  GI50: 29.1 µM (inactive)
SF-295
  GI50: 29.3 µM (inactive)
SW-620
  GI50: 77.6 µM (inactive)
NCI-H522
  GI50: 29.6 µM (inactive)
SK-MEL-2
  GI50: > 100 µM (inactive)
LOX IMVI
  GI50: 64.6 µM (inactive)
MCF7
  GI50: 65.5 µM (inactive)
UACC-62
  GI50: > 100 µM (inactive)
KM12
  GI50: 45.5 µM (inactive)
NCI/ADR-RES
  GI50: 55.1 µM (inactive)
NCI-H23
  GI50: 46.2 µM (inactive)
SK-OV-3
  GI50: 87.1 µM (inactive)
MDA-N
  GI50: 57 µM (inactive)
HL-60
  GI50: > 100 µM (inactive)
SR
  GI50: 36.3 µM (inactive)
OVCAR-8
  GI50: 37.2 µM (inactive)
SNB-75
  GI50: 92.3 µM (inactive)
COLO 205
  GI50: 18.7 µM (inactive)
SNB-19
  GI50: 85.9 µM (inactive)
SK-MEL-5
  GI50: 39.4 µM (inactive)
Hs-578T
  GI50: > 100 µM (inactive)
HOP-92
  GI50: > 100 µM (inactive)
DU-145
  GI50: 62.2 µM (inactive)
Malme-3M
  GI50: 50.1 µM (inactive)
UO-31
  GI50: 83.2 µM (inactive)
SN12C
  GI50: 48.2 µM (inactive)
HT-29
  GI50: > 100 µM (inactive)
ACHN
  GI50: 48.6 µM (inactive)
RPMI-8226
  GI50: 40.6 µM (inactive)
OVCAR-3
  GI50: > 100 µM (inactive)
MDA-MB-435
  GI50: 41.8 µM (inactive)

## CN1CC=C(C#CC(C)(C)O)CC1
786-0
  GI50: > 37.5 µM (inactive)
IGROV-1
  GI50: > 37.5 µM (inactive)
M14
  GI50: > 37.5 µM (inactive)
A549
  GI50: > 37.5 µM (inactive)
EKVX
  GI50: > 37.5 µM (inactive)
TK-10
  GI50: > 37.5 µM (inactive)
UACC-257
  GI50: > 37.5 µM (inactive)
CCRF-CEM
  GI50: > 37.5 µM (inactive)
T47D
  GI50: > 37.5 µM (inactive)
HCT-116
  GI50: > 37.5 µM (inactive)
CAKI-1
  GI50: > 37.5 µM (inactive)
MOLT-4
  GI50: > 37.5 µM (inactive)
K562
  GI50: > 37.5 µM (inactive)
HCT-15
  GI50: > 37.5 µM
SF-268
  GI50: > 37.5 µM (inactive)
OVCAR-5
  GI50: > 37.5 µM (inactive)
MDA-MB-231
  GI50: > 37.5 µM (inactive)
NCI-H460
  GI50: > 37.5 µM (inactive)
U-251
  GI50: > 37.5 µM (inactive)
RXF 393
  GI50: > 37.5 µM (inactive)
PC-3
  GI50: > 37.5 µM (inactive)
NCI-H226
  GI50: > 37.5 µM (inactive)
SK-MEL-28
  GI50: > 37.5 µM (inactive)
BT-549
  GI50: > 37.5 µM (inactive)
HOP-62
  GI50: > 37.5 µM (inactive)
SF-295
  GI50: > 37.5 µM (inactive)
SW-620
  GI50: > 37.5 µM (inactive)
SK-MEL-2
  GI50: > 37.5 µM (inactive)
LOX IMVI
  GI50: > 37.5 µM (inactive)
MCF7
  GI50: > 37.5 µM (inactive)
UACC-62
  GI50: > 37.5 µM (inactive)
KM12
  GI50: > 37.5 µM (inactive)
NCI/ADR-RES
  GI50: > 37.5 µM (inactive)
NCI-H23
  GI50: > 37.5 µM (inactive)
SK-OV-3
  GI50: > 37.5 µM (inactive)
MDA-N
  GI50: > 37.5 µM (inactive)
HL-60
  GI50: > 37.5 µM (inactive)
SR
  GI50: > 37.5 µM (inactive)
OVCAR-8
  GI50: > 37.5 µM (inactive)
SNB-75
  GI50: > 37.5 µM (inactive)
COLO 205
  GI50: > 37.5 µM (inactive)
SNB-19
  GI50: > 37.5 µM (inactive)
SK-MEL-5
  GI50: > 37.5 µM (inactive)
Hs-578T
  GI50: > 37.5 µM (inactive)
DU-145
  GI50: > 37.5 µM (inactive)
Malme-3M
  GI50: 30.8 µM (inactive)
UO-31
  GI50: > 37.5 µM (inactive)
SN12C
  GI50: > 37.5 µM (inactive)
HT-29
  GI50: > 37.5 µM (inactive)
ACHN
  GI50: > 37.5 µM (inactive)
RPMI-8226
  GI50: > 37.5 µM (inactive)
OVCAR-4
  GI50: > 37.5 µM (inactive)
OVCAR-3
  GI50: > 37.5 µM (inactive)
HCC 2998
  GI50: > 37.5 µM (inactive)
MDA-MB-435
  GI50: > 37.5 µM (inactive)
